From patent publication US20150190534A1, “COMPOUNDS FOR USE AS POSITRON EMISSION IMAGING AGENTS” (UNIVERSITY OF BERN, priority 2014, published 2015)
Positions count from the first letter of the chain named. Read-outs that look alike come from different tables or passages of the source.

Legend:
[1] = molecular target: T1, mutant T877A-AR (pSG5AR-T877A) transfected COS-7 cells (Homo sapiens, UniProt P10275, T878A); type: cell-based
T1 construct: pSG5-AR with full-length cDNA of human WT-AR; expressed in transfected cells; host or cells: COS-7
T1 sequence (P10275 1-920 T878A): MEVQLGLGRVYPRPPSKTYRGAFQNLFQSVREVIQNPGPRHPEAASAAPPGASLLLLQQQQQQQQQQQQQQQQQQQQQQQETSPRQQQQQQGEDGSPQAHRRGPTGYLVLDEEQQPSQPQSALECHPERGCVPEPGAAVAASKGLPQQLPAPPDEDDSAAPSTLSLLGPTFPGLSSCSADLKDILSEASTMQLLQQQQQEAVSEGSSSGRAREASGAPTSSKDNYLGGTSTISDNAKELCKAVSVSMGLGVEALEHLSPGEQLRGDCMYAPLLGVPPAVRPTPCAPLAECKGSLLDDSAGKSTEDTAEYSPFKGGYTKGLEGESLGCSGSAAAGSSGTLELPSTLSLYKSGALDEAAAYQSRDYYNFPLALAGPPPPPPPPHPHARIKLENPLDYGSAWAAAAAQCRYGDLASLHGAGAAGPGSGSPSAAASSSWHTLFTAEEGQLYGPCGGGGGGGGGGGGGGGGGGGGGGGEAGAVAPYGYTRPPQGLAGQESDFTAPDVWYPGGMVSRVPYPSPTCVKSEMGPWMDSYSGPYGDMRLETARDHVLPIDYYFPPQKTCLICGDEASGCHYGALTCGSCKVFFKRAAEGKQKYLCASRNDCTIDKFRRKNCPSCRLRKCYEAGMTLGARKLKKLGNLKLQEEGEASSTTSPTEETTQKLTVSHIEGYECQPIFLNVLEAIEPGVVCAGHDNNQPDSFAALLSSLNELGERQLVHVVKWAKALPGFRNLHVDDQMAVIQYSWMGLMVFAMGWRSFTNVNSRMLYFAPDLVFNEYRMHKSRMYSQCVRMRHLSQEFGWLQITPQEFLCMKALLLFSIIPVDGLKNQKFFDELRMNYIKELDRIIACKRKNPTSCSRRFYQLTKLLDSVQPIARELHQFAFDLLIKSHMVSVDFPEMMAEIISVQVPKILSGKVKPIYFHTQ
Description: (§1) Prostate. Jun. 1, 2011; 71(8):872-880.), progesterone receptor (pSG5-PR-alpha, pSG5-pPRbeta, PR), glucocorticoid (pCMV5-hGR-alpha, GR) and mineralocorticoid receptors (pRShMR, MR), estrogen receptors (pCMV5-ER-alpha, pCMV5-ER-beta, ER). T877A-AR was generated by site-directed mutagenesis as described in Andrieu T, Bertolini R, Nichols S E, et al. A novel steroidal antiandrogen targeting wild type and mutant androgen receptors. Biochem Pharmacol. Dec. 1, 2011; 82(11):1651-1662. Cells seeded on 6-well plates (density: 5×10^5/well) were transfected 96 h later with 1 μg of empty (pcDNA3) or human AR encoding plasmids using 3 μl of FuGENE-HD transfection reagent (Roche, Rotkreuz, Switzerland). One day after transfection the medium was changed to 2% charcoal treated (CT) FBS containing medium.
Then cells were washed with ice cold PBS. Collected medium and PBS were considered as the unbound fraction. Cells were incubated for 5 min in glycine buffer 50 mM (pH 2.8), washed with PBS (membrane fraction) and lysed with RIPA buffer (Sigma, R0278) (cellular fraction). The radioactivity was measured by gamma counting. Cellular uptake of radioactivity was corrected by the protein amount (BCA assay, Pierce).

[2] = Description: (§2) Male SCID-mice (Charles River, Sulzfeld, Germany) were subcutaneously injected with C4-2 and PC-3 cells into both shoulders as previously described (21).
(§3) Images were reconstructed at 0.6 mm thickness using a H31s medium smooth plus kernel. […] For biodistribution studies mice were sacrificed using CO2 after 1-3 h, designated organs and tissues harvested and weighed. Radioactivity was measured in a Gamma-counter (Wizard, Perkin Elmer) and the percentage of injected dose per gram of tissue (% ID/g) calculated.

[3] = tested on: T877A-AR positive C4-2 tumors; details: 1 h
Description: as §2, §3

[4] = tested on: receptor negative PC-3 tumors; details: 1 h
Description: as §2, §3

[5] = molecular target: T2, human WT-AR (Homo sapiens, UniProt P10275); test: Whole cell competitive binding assay, WT-AR
T2 construct: pSG5-AR with full-length cDNA of human WT-AR; expressed in transfected cells; host or cells: COS-7
T2 sequence (P10275 1-920): T1 sequence (P10275 1-920 T878A) with A878T
Description: as §1, with “1, 2011; 71(8):872-880.), progesterone receptor (pSG5-PR-alpha, pSG5-pPRbeta, PR), glucocorticoid (pCMV5-hGR-alpha, GR) and mineralocorticoid receptors (pRShMR, MR), estrogen receptors (pCMV5-ER-alpha, pCMV5-ER-beta, ER).” left out, “1, 2011; 82(11):1651-1662.” left out
(§4) In 24 wells 50′000 COS-7 cells were seeded and transfected with 500 ng of receptor encoding plasmids. One day later, cells were washed and cultured in 0.5 ml of phenol-red free DMEM with 2% CT-FBS for another 24 h. […] Supernatant and cells were mixed with scintillation liquid (Irgasafe, Perkin Elmer) and radioactivity counted (Tri-Carb 2000CA, Canberra Packard). The percentage of binding in presence and absence of derivative was calculated relatively to total dpm and results expressed as percentage of binding relative to the ^3H-tracer alone (100%).

[6] = molecular target: T3, T877A-AR (Homo sapiens, UniProt P10275, T878A); test: Whole cell competitive binding assay, T877A-AR
T3 construct: pSG5-AR with full-length cDNA of human WT-AR; expressed in transfected cells; host or cells: COS-7
T3 sequence (P10275 1-920 T878A): T1 sequence (P10275 1-920 T878A)
Description: as §1, with “1, 2011; 71(8):872-880.), progesterone receptor (pSG5-PR-alpha, pSG5-pPRbeta, PR), glucocorticoid (pCMV5-hGR-alpha, GR) and mineralocorticoid receptors (pRShMR, MR), estrogen receptors (pCMV5-ER-alpha, pCMV5-ER-beta, ER).” left out, “1, 2011; 82(11):1651-1662.” left out
as §4

[7] = tested on: T877A-AR positive C4-2 tumors; test: PET/CT imaging, C4-2 tumor bearing mice; type: in vivo, mouse
[8] = tested on: PC-3 AR-negative xenografts; test: PET/CT imaging, PC-3 tumor bearing mice; type: in vivo, mouse; details: 3 h after injection

Q: Which “preferential uptake by transfected cells” value ([1]; pcDNA3, WT-AR or T877A-AR transfected COS-7 cells) does the source give for C[N+](C)(CF)CCO [^18F-FCH, ^18F-fluorocholine] here?
A: The value was “did not reveal any preferential uptake”.

Q: And the “radioactivity after washing procedures” value ([1]; transfected COS-7 cells, washing procedures)?
A: The value was “eliminated”.

Q: And the Bone ([2]; 1 h)?
A: Its Bone is 27.99 ± 5.95 % ID/g.

Q: And the Brain ([2]; 1 h)?
A: Its Brain is 9.61 ± 2.13 % ID/g.

Q: And the Heart ([2]; 1 h)?
A: Its Heart is 76.93 ± 5.18 % ID/g.

Q: And the Intestine ([2]; 1 h)?
A: Its Intestine is 22.97 ± 4.67 % ID/g.

Q: What about the Kidney ([2]; 1 h) of the same compound?
A: Its Kidney is 164.72 ± 33.57 % ID/g.

Q: What about the Liver ([2]; 1 h) of the same compound?
A: Its Liver is 48.82 ± 7.55 % ID/g.

Q: What about the Lung ([2]; 1 h) of the same compound?
A: The Lung was 97.42 ± 23.21 % ID/g.

Q: What about the Muscle ([2]; 1 h) of the same compound?
A: The Muscle was 10.36 ± 2.58 % ID/g.

Q: And the Prostate ([2]; 1 h)?
A: Its Prostate is 48.26 ± 19.35 % ID/g.

Q: What about the Spleen ([2]; 1 h) of the same compound?
A: Its Spleen is 66.48 ± 19.45 % ID/g.

Q: And the Testis ([2]; 1 h)?
A: The Testis was 13.58 ± 2.64 % ID/g.

Q: What about the route of metabolism/excretion ([2]; tumor bearing SCID-mice) of the same compound?
A: Its route of metabolism/excretion is “excreted predominantly by the kidney”.

Q: And the “C4-2 Tumor” value [3]?
A: Its value is 31.62 ± 3.88 % ID/g.

Q: What about the “PC-3 Tumor” value [4] of the same compound?
A: The value was 5.65 ± 1.37 % ID/g.

Q: For C[C@]12CCC(=O)C[C@@H]1CC[C@@H]1[C@@H]2CC[C@]2(C)[C@@H](OC(=O)NCCCF)CC[C@@H]12 [RB390], which IC50 [5] is on record?
A: Its IC50 is 357 nM.

Q: What about the IC50 [6] of the same compound?
A: The IC50 was 32 nM.

Q: And the “PET signal in C4-2 tumors with unlabelled DHT” value ([7]; 3 h, excess of unlabelled DHT injected in parallel)?
A: Its value is “nearly full receptor blockade”.

Q: And the “PET signal in C4-2 tumors” value ([7]; 3 h after injection)?
A: The value was “bound specifically”.

Q: What about the “PET signal in PC-3 tumors” value [8] of the same compound?
A: The value was “remained at background levels”.

Q: What does the source list for ^18F-fluorodeoxyglucose [^18F-FDG]?
A: preferential uptake by transfected cells [1]: did not reveal any preferential uptake; radioactivity after washing procedures [1]: eliminated

Q: Which results are given for C[C@]12CC[C@H](O)C[C@@H]1CC[C@@H]1[C@@H]2CC[C@]2(C)[C@@H](OC(=O)NCCCF)CC[C@@H]12 [RB448]?
A: IC50 [5]: 2200 nM; IC50 [6]: 37.7 nM; affinity/selectivity for T877A-AR versus WT-AR ([6]; comparison of IC50 values): even more favorable selectivity
